Assay [1] concerns TERRA (RNA, G4) UAAGGGUAAGGGUAAGGGUAAGGG
In words: fluorescence polarization (pomalidomide fluorescence). The note with it: 100 mM K+ (KCl), 10 mM Li-cacodylate, pH 7.4, ligand 0.2 µM, per binding site (two sites per G4). For orientation: In fluorescence polarisation assays a small probe gives low polarisation when free and higher when bound to something large.

Assay [2] concerns dsDNA (DNA, hairpin) TATAGCTATATTTTTTTATAGCTATA
As to the kind of experiment: fluorescence polarization (intrinsic pomalidomide fluorescence). Particulars: 100 mM KCl; 10 mM Li-cacodylate, pH 7.4; ligand 0.2 µM; per site.

Assay [3] has as its system telo24 (DNA, G4) TTAGGGTTAGGGTTAGGGTTAGGG
Described as above. Particulars: 100 mM KCl; 10 mM Li-cacodylate, pH 7.4; ligand 0.2 µM; fit assumes two sites per G4; per site.

The test system of assay [4] is ssDNA (DNA, single strand) CCCTAACCCTAACCCTAACCCTAA
The assay is described as above. The note with it: 100 mM KCl; 10 mM Li-cacodylate, pH 7.4; ligand 0.2 µM; per site.

In assay [5] the test system is NRAS (RNA, G4) UGUGGGAGGGGCGGGUCUGGGUGC
The assay is described as above. Particulars: 100 mM KCl; 10 mM Li-cacodylate, pH 7.4; ligand 0.2 µM; fit assumes two sites per G4; per site.

Assay [6] deals with bcl2 (DNA, G4) GGGCGCGGGAGGAATTGGGCGGG
As to the kind of experiment: fluorescence polarization (pomalidomide fluorescence). The note with it: 100 mM K+ (KCl), 10 mM Li-cacodylate, pH 7.4, ligand 0.2 µM, per binding site (two sites per G4).

For assay [7], the system named is VEGFR (DNA, G4) GGGTACCCGGGTGAGGTGCGGGGT
In words: fluorescence polarization (intrinsic pomalidomide fluorescence). Particulars: 100 mM KCl; 10 mM Li-cacodylate, pH 7.4; ligand 0.2 µM; fit assumes two sites per G4; per site.

Assay [8] deals with 19wt (DNA, G4) GGGGGAGGGGTACAGGGGTACAGGGG
The description is as above. Particulars: 100 mM KCl; 10 mM Li-cacodylate, pH 7.4; ligand 0.2 µM; fit assumes two sites per G4; per site.

For assay [9], the system named is c-kit1 (DNA, G4) AGGGAGGGCGCTGGGAGGAGGG
The assay is described as above. Particulars: 100 mM KCl; 10 mM Li-cacodylate, pH 7.4; ligand 0.2 µM; fit assumes two sites per G4; per site.

Assay [10] has as its system bcl2 (DNA, G4) GGGCGCGGGAGGAATTGGGCGGG
Described as above. Particulars: 100 mM KCl; 10 mM Li-cacodylate, pH 7.4; ligand 0.2 µM; fit assumes two sites per G4; per site.

Assay [11] has as its system PARP1 (DNA, G4) TGGGGTCCGAGGCGGGGCTTGGG
The description is as above. Particulars: 100 mM KCl; 10 mM Li-cacodylate, pH 7.4; ligand 0.2 µM; fit assumes two sites per G4; per site.

In assay [12] the test system is KRAS (DNA, G4) AGGGCGGTGTGGGAATAGGGAA
The assay is described as above. Particulars: 100 mM KCl; 10 mM Li-cacodylate, pH 7.4; ligand 0.2 µM; fit assumes two sites per G4; per site.

Assay [13] has as its system TERRA (RNA, G4) UAAGGGUAAGGGUAAGGGUAAGGG
The assay is described as above. Particulars: 100 mM KCl; 10 mM Li-cacodylate, pH 7.4; ligand 0.2 µM; fit assumes two sites per G4; per site.

Assay [14] has as its system VEGF (DNA, G4) CGGGGCGGGCCTTGGGCGGGGT
The assay is described as above. Particulars: 100 mM KCl; 10 mM Li-cacodylate, pH 7.4; ligand 0.2 µM; fit assumes two sites per G4; per site.

Another assay addresses T1, cereblon (CRBN) (Homo sapiens, UniProt Q96SW2).
T1 construct: Eu3+-cryptate-labeled CRBN
As to the kind of experiment: TR-FRET displacement of thalidomide-red from Eu3+-cryptate-labeled CRBN. It counts as binding. The text has this:
TR-FRET displacement of thalidomide-red from Eu3+-cryptate-labeled CRBN on cereblon (CRBN) | displacement of thalidomide-red and binding of 1a and 2a to CRBN.
A general note: In TR-FRET formats the signal depends on donor and acceptor labels being close together.

T1 sequence (Q96SW2 whole entry): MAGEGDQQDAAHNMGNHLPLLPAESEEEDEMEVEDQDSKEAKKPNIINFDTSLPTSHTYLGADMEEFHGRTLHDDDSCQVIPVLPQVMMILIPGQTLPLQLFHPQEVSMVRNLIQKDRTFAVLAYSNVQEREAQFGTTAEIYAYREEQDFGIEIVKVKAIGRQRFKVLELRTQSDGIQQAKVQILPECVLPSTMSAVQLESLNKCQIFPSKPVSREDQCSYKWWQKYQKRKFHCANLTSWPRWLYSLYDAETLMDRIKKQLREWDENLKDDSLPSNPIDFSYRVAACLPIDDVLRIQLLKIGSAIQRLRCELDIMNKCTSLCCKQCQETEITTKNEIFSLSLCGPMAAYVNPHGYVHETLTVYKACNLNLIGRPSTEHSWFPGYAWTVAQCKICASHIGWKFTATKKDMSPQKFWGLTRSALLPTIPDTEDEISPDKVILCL

Broadly, the Kd is a measure of binding affinity in units of concentration. Low readings indicate tighter binding, high ones weaker binding. Regarding `Cc1oc2nc1-c1nc(c(CCCNC(=O)CCOCCOCCOCCOCCNc3cccc4c3C(=O)N(C3CCC(=O)N(C)C3=O)C4=O)o1)-c1nc(co1)C(=O)N[C@@H](CCCCN)c1nc(co1)-c1nc(co1)-c1nc(co1)C(=O)N[C@H]2CCCCN` (some centres unmarked), the Kd in assay [1] is given as 110 ± 115 nM; in assay [2] it was more than 1200 nM; in assay [3], 155 ± 29 nM; in assay [4], more than 1200 nM; in assay [5], 96 ± 28 nM; in assay [6] it was 278 ± 258 nM.

For the molecule `Cc1oc2nc1-c1nc(c(CCCNC(=O)CNc3cccc4c3C(=O)N(C3CCC(=O)N(C)C3=O)C4=O)o1)-c1nc(co1)C(=O)N[C@@H](CCCCN)c1nc(co1)-c1nc(co1)-c1nc(co1)C(=O)N[C@H]2CCCCN` (some centres unmarked), the Kd in [7] is on record as 46 ± 18 nM; in assay [2] it was more than 1200 nM; in [8], 289 ± 184 nM; in assay [9], 38 ± 41 nM; in assay [3], 33 ± 17 nM; in [4], more than 1200 nM. The Kd in [10] came to 104 ± 53 nM; in [11], 39 ± 16 nM; in [5] it was 10 ± 5 nM; in assay [12], 19 ± 14 nM; in assay [13] it was 26 ± 22 nM; in assay [14], 4 ± 3 nM.

For orientation: IC50 means the concentration at which inhibition is half-maximal. With `Cc1oc2nc1-c1nc(c(CCCNC(=O)CNc3cccc4c3C(=O)N(C3CCC(=O)NC3=O)C4=O)o1)-c1nc(co1)C(=O)N[C@@H](CCCCN)c1nc(co1)-c1nc(co1)-c1nc(co1)C(=O)N[C@H]2CCCCN` (some centres unmarked) [1a], the Kd is recorded as 27 ± 5 nM in assay [7]; more than 1200 nM in [2]; 103 ± 27 nM in assay [8]; 39 ± 23 nM in [9]; 108 ± 75 nM in assay [3]; more than 1200 nM in assay [4]. Moreover, the Kd was 30 ± 13 nM in assay [10]; 42 ± 40 nM in [11]; 65 ± 2 nM in assay [5]; 45 ± 35 nM in [12]; 72 ± 39 nM in assay [13]; 42 ± 38 nM in assay [14]. Besides, the half-inhibitory concentration (IC50) at cereblon (CRBN) was 61 nM.

For the molecule `Cc1oc2nc1-c1nc(c(CCCNC(=O)CCOCCOCCOCCOCCNc3cccc4c3C(=O)N(C3CCC(=O)NC3=O)C4=O)o1)-c1nc(co1)C(=O)N[C@@H](CCCCN)c1nc(co1)-c1nc(co1)-c1nc(co1)C(=O)N[C@H]2CCCCN` (some centres unmarked) [2a], the Kd in [7] was 802 ± 325 nM; in [2], more than 1200 nM; in assay [8], 3402 ± 436 nM; in [9] it was 178 ± 22 nM; in assay [3], 356 ± 210 nM; in [4] it was more than 1200 nM. Also, the Kd is reported as 266 ± 178 nM in assay [10]; 817 ± 447 nM in assay [11]; 68 ± 56 nM in [5]; 103 ± 45 nM in assay [12]; 5 ± 4 nM in assay [13]; 46 ± 23 nM in assay [14]. On cereblon (CRBN), this molecule came in with an IC50 of 90 nM.
